Assay results: patent US20240166646A1, “1H-PYRROLO[2,3-B]PYRIDINE DERIVATIVES AS BCL-2 INHIBITORS FOR THE TREATMENT OF NEOPLASTIC AND AUTOIMMUNE DISEASES” (Newave Pharmaceutical Inc., priority 2020, published 2024)

Assays:
[1] = biological target: Bcl-2 (Homo sapiens (Human), UniProt P10415); assay: Bcl-2 competition binding (fluorescence polarization) assay; details: fluorescein labeled BH3 peptide 15 nM, Bcl-2 protein 30 nM, 3 hours of incubation at room temperature
Experimental: Biological Example 1: Bcl-2 Competition Binding (Fluorescence Polarization) Assay
The fluorescence-labeled 23 amino acid peptide BH3 was purchased from CalBiochem ([…]). […] This binding assay was performed in 96-well plate and with each assay contained 15 and 30 nM of labeled peptide and purified Bcl-2 protein (purchased from R&D Systems, Inc). The assay buffer contained 20 mM Hepes (pH 7.0), 50 mM KCl, 5 mM MgCl2, 20 mM Na2MoO4, 0.1 mg/mi Bovine Gamma Globulin and 0.01% NP40. Compounds were diluted in DMS0 and added to the final assay with concentration range from 20 μM to 2 nM. The polarization degree (mP) value was determined by BioTek Synergy II with background subtraction after 3 hours of incubation at room temperature. IC50 was calculated using Prism software with sigmoidal dose-response curve fitting. ABT-737 was used as reference compound. Such assays, carried out with a range of doses of test compounds, allowed the determination of an approximate IC50 value.

[2] = tested on: BCL-2-dependent acute lymphoblastic leukemia (ALL) cell line RS4; 11 with G101V mutation; assay: In vitro anti-proliferation assay (ATPlite) in RS4; 11 with G101V mutation; format: cell-based; details: about 72 hours incubation, medium with 5% FBS or 10% normal human serum, ATPlite luminescence
Experimental: Cell antiproliferation was assayed by PerkinElmer ATPlite™ Luminescence Assay System. Briefly, the various test cancer cell lines were plated at a density of about 1×10^4 cells per well in Costar 96-well plates, and were incubated with different concentrations of compounds for about 72 hours in medium supplemented with 5% FBS or 10% normal human serum (NHS). One lyophilized substrate solution vial was then reconstituted by adding 5 mL of substrate buffer solution, and was agitated gently until the solution was homogeneous. About 50 μL of mammalian cell lysis solution was added to 100 μL of cell suspension per well of a microplate, and the plate was shaken for about five minutes in an orbital shaker at ˜700 rpm. This procedure was used to lyse the cells and to stabilize the ATP. Next, 50 μL substrate solution was added to the wells and microplate was shaken for five minutes in an orbital shaker at ˜700 rpm. Finally, the luminescence was measured by a PerkinElmer TopCount® Microplate Scintillation Counter. Such assays, carried out with a range of doses of test compounds, allowed the determination of the cellular anti-antiproliferative IC50 of the compounds of the present invention.

Sequence of Bcl-2 (P10415 whole entry): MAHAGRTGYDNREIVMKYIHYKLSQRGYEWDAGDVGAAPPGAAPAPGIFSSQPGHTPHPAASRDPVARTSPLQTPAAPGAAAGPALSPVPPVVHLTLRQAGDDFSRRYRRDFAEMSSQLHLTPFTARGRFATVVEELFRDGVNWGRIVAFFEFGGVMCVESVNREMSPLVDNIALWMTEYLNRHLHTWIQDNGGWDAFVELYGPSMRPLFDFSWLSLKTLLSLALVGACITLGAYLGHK

Compound | IC50 [1] [nM] | IC50 [2] [nM]
CC(C)c1ccccc1[C@@H]1CCCN1C1CC2(CCN(c3ccc(C(=O)NS(=O)(=O)c4ccc(NCC5CCOCC5)c([N+](=O)[O-])c4)c(N4c5cc6cc[nH]c6nc5O[C@@H]5COC[C@H]54)c3)CC2)C1 [Example 1, 2-[(11R,15S)-13,16-dioxa-2,4,10-triazatetracyclo[7.7.0.0^[3,7]0.0^[11,15]]hexadeca-1(9),2,5,7-tetraen-10-yl]-4-[2-[(2S)-2-(2-isopropylphenyl)pyrrolidin-1-yl]-7-azaspiro[3.5]nonan-7-yl]-N-[3-nitro-4-[(oxan-4-ylmethyl)amino]benzenesulfonyl]benzamide] | 0.1 | 5.1
CC(C)c1ccccc1[C@@H]1CCCN1C1CC2(CCN(c3ccc(C(=O)NS(=O)(=O)c4ccc(NCC5CCOCC5)c([N+](=O)[O-])c4)c(N4c5cc6cc[nH]c6nc5O[C@H]5COC[C@@H]54)c3)CC2)C1 [Example 2, 2-[(11S,15R)-13,16-dioxa-2,4,10-triazatetracyclo[7.7.0.0^[3,7].0^[11,15]]hexadeca-1(9),2,5,7-tetraen-10-yl]-4-[2-[(2S)-2-(2-isopropylphenyl)pyrrolidin-1-yl]-7-azaspiro[3.5]nonan-7-yl]-N-[3-nitro-4-[(oxan-4-ylmethyl)amino]benzenesulfonyl]benzamide] | 0.22 | 66.7
CC(C)c1ccccc1[C@@H]1CCCN1C1CC2(CCN(c3ccc(C(=O)NS(=O)(=O)c4ccc(NC[C@H]5CC[C@](C)(O)CC5)c([N+](=O)[O-])c4)c(N4c5cc6cc[nH]c6nc5O[C@@H]5COC[C@H]54)c3)CC2)C1 [Example 3-0A] | 0.16 | 5.6
CC(C)c1ccccc1[C@@H]1CCCN1C1CC2(CCN(c3ccc(C(=O)NS(=O)(=O)c4ccc(NC[C@H]5CC[C@@](C)(O)CC5)c([N+](=O)[O-])c4)c(N4c5cc6cc[nH]c6nc5O[C@@H]5COC[C@H]54)c3)CC2)C1 [Example 3-0B] | 0.13 | 25
N#Cc1ccccc1[C@@H]1CCCN1C1CC2(CCN(c3ccc(C(=O)NS(=O)(=O)c4ccc(NCC5CCOCC5)c([N+](=O)[O-])c4)c(N4c5cc6cc[nH]c6nc5O[C@@H]5COC[C@H]54)c3)CC2)C1 [Example 26, 4-{2-[(2S)-2-(2-cyanophenyl)pyrrolidin-1-yl]-7-azaspiro[3.5]nonan-7-yl}-2-[(11R,15S)-13,16-dioxa-2,4,10-triazatetracyclo[7.7.0.0^{3,7}.0^{11,15}]hexadeca-1(9),2,5,7-tetraen-10-yl]-N-{3-nitro-4-[(oxan-4-ylmethyl)amino]benzenesulfonyl}benzamide] | 0.7 | –
O=C(NS(=O)(=O)c1ccc(NCC2CCOCC2)c([N+](=O)[O-])c1)c1ccc(N2CCC3(CC2)CC(N2CCC[C@H]2c2ccccc2NCC(F)(F)F)C3)cc1N1c2cc3cc[nH]c3nc2O[C@@H]2COC[C@H]21 [Example 27, 2-[(11R,15S)-13,16-dioxa-2,4,10-triazatetracyclo[7.7.0.0^{3,7}.0^{11,15}]hexadeca-1(9),2,5,7-tetraen-10-yl]-N-{3-nitro-4-[(oxan-4-ylmethyl)amino]benzenesulfonyl}-4-{2-[(2S)-2-{2-[(2,2,2-trifluoroethyl)amino]phenyl}pyrrolidin-1-yl]-7-azaspiro[3.5]nonan-7-yl}benzamide] | 1.2 | –
CC(C)S(=O)(=O)c1ccccc1[C@@H]1CCCN1C1CC2(CCN(c3ccc(C(=O)NS(=O)(=O)c4ccc(NCC5CCOCC5)c([N+](=O)[O-])c4)c(N4c5cc6cc[nH]c6nc5O[C@@H]5COC[C@H]54)c3)CC2)C1 [Example 28, 2-[(11R,15S)-13,16-dioxa-2,4,10-triazatetracyclo[7.7.0.0^{3,7}.0^{11,15}]hexadeca-1(9),2,5,7-tetraen-10-yl]-N-{3-nitro-4-[(oxan-4-ylmethyl)amino]benzenesulfonyl}-4-{2-[(2S)-2-[2-(propane-2-sulfonyl)phenyl]pyrrolidin-1-yl]-7-azaspiro[3.5]nonan-7-yl}benzamide] | 31.2 | –
CP(C)(=O)c1ccccc1[C@@H]1CCCN1C1CC2(CCN(c3ccc(C(=O)NS(=O)(=O)c4ccc(NCC5CCOCC5)c([N+](=O)[O-])c4)c(N4c5cc6cc[nH]c6nc5O[C@@H]5COC[C@H]54)c3)CC2)C1 [Example 29, 4-{2-[(2S)-2-[2-(dimethylphosphoryl)phenyl]pyrrolidin-1-yl]-7-azaspiro[3.5]nonan-7-yl}-2-[(11R,15S)-13,16-dioxa-2,4,10-triazatetracyclo[7.7.0.0^{3,7}.0^{11,15}]hexadeca-1(9),2,5,7-tetraen-10-yl]-N-{3-nitro-4-[(oxan-4-ylmethyl)amino]benzenesulfonyl}benzamide] | 1.39 | –
NC(=O)c1ccccc1[C@@H]1CCCN1C1CC2(CCN(c3ccc(C(=O)NS(=O)(=O)c4ccc(NCC5CCOCC5)c([N+](=O)[O-])c4)c(N4c5cc6cc[nH]c6nc5O[C@@H]5COC[C@H]54)c3)CC2)C1 [Example 30, 4-{2-[(2S)-2-(2-carbamoylphenyl)pyrrolidin-1-yl]-7-azaspiro[3.5]nonan-7-yl}-2-[(11R,15S)-13,16-dioxa-2,4,10-triazatetracyclo[7.7.0.0^{3,7}.0^{11,15}]hexadeca-1(9),2,5,7-tetraen-10-yl]-N-{3-nitro-4-[(oxan-4-ylmethyl)amino]benzenesulfonyl}benzamide] | 15.8 | –
CC1(C)C[C@@H](c2ccccc2[C@@H]2CCCN2C2CC3(CCN(c4ccc(C(=O)NS(=O)(=O)c5ccc(NCC6CCOCC6)c([N+](=O)[O-])c5)c(N5c6cc7cc[nH]c7nc6O[C@@H]6COC[C@H]65)c4)CC3)C2)CCO1 [Example 31, 4-{2-[(2S)-2-{2-[(4S)-2,2-dimethyloxan-4-yl]phenyl}pyrrolidin-1-yl]-7-azaspiro[3.5]nonan-7-yl}-2-[(11R,15S)-13,16-dioxa-2,4,10-triazatetracyclo[7.7.0.0^{3,7}.0^{11,15}]hexadeca-1(9),2,5,7-tetraen-10-yl]-N-{3-nitro-4-[(oxan-4-ylmethyl)amino]benzenesulfonyl}benzamide] | 30.7 | –
CC1(C)C[C@H](c2ccccc2[C@@H]2CCCN2C2CC3(CCN(c4ccc(C(=O)NS(=O)(=O)c5ccc(NCC6CCOCC6)c([N+](=O)[O-])c5)c(N5c6cc7cc[nH]c7nc6O[C@@H]6COC[C@H]65)c4)CC3)C2)CCO1 [Example 32, 4-{2-[(2S)-2-{2-[(4R)-2,2-dimethyloxan-4-yl]phenyl}pyrrolidin-1-yl]-7-azaspiro[3.5]nonan-7-yl}-2-[(11R,15S)-13,16-dioxa-2,4,10-triazatetracyclo[7.7.0.0^{3,7}.0^{11,15}]hexadeca-1(9),2,5,7-tetraen-10-yl]-N-{3-nitro-4-[(oxan-4-ylmethyl)amino]benzenesulfonyl}benzamide] | 15.8 | –
O=C(NS(=O)(=O)c1ccc(NCC2CCOCC2)c([N+](=O)[O-])c1)c1ccc(N2CCC3(CC2)CC(N2CCC[C@H]2c2cccc(Cl)c2)C3)cc1N1c2cc3cc[nH]c3nc2O[C@@H]2COC[C@H]21 [Example 33, 4-{2-[(2S)-2-(3-chlorophenyl)pyrrolidin-1-yl]-7-azaspiro[3.5]nonan-7-yl}-2-[(11R,15S)-13,16-dioxa-2,4,10-triazatetracyclo[7.7.0.0^{3,7}.0^{11,15}]hexadeca-1(9),2,5,7-tetraen-10-yl]-N-{3-nitro-4-[(oxan-4-ylmethyl)amino]benzenesulfonyl}benzamide] | 1.42 | –
O=C(NS(=O)(=O)c1ccc(NCC2CCOCC2)c([N+](=O)[O-])c1)c1ccc(N2CCC3(CC2)CC(N2CCC[C@H]2c2ccc(Cl)cc2)C3)cc1N1c2cc3cc[nH]c3nc2O[C@@H]2COC[C@H]21 [Example 34, 4-{2-[(2S)-2-(4-chlorophenyl)pyrrolidin-1-yl]-7-azaspiro[3.5]nonan-7-yl}-2-[(11R,15S)-13,16-dioxa-2,4,10-triazatetracyclo[7.7.0.0^{3,7}.0^{11,15}]hexadeca-1(9),2,5,7-tetraen-10-yl]-N-{3-nitro-4-[(oxan-4-ylmethyl)amino]benzenesulfonyl}benzamide] | 3.5 | –
CC(C)Cc1ccccc1[C@@H]1CCCN1C1CC2(CCN(c3ccc(C(=O)NS(=O)(=O)c4ccc(NCC5CCOCC5)c([N+](=O)[O-])c4)c(N4c5cc6cc[nH]c6nc5O[C@@H]5COC[C@H]54)c3)CC2)C1 [Example 35, 4-(2-((S)-2-(2-isobutylphenyl)pyrrolidin-1-yl)-7-azaspiro[3.5]nonan-7-yl)-N-((3-nitro-4-(((tetrahydro-2H-pyran-4-yl)methyl)amino)phenyl)sulfonyl)-2-((5aR,8aS)-5a,6,8,8a-tetrahydrofuro[3,4-b]pyrrolo[3′,2′:5,6]pyrido[3,2-e][1,4]oxazin-5(1H)-yl)benzamide] | 0.58 | –
